In patent US6617282B2, “Processes for preparing 3-phenyl-2,4(1H, 3H)-pyrimidinediones” (Ishihara Sangyo Kaisha, Ltd., priority 2001, dated 2003):

What was measured:
Assay in all cases: PRE emergent soil treatment, weed control
Assay type in all cases: in vivo
Details in all cases: applied to soil, 250 g/ha
[1] = system: velvetleaf (Abutilon theophrasti)
Description: (§1) Compound B was applied to soil as a PRE emergent treatment at the rate of 250 g/ha. The broadleaf weed species velvetleaf (Abutilon theophrasti), redroot pigweed (Amaranthus retroflexus) and lambsquarters (Chenopodium album) were all 100% controlled by this treatment.

[2] = system: lambsquarters (Chenopodium album)
Description: as §1

[3] = system: redroot pigweed (Amaranthus retroflexus)
Description: as §1

Measured: controlled (weed control)

CC(C)=Nn1c(C(F)(F)F)cc(=O)n(-c2cc(Oc3ccccc3[N+](=O)[O-])c(Cl)cc2F)c1=O [Compound B, 3-[4-hloro-2-fluoro-5-(2-nitrophenoxy)phenyl]-1-[(1-methylethylidene)amino]-6-(trifluoromethyl)-2,4(1H,3H)-pyrimidinedione]
100%: all assays above
